One experiment has as its target T1, T1R2/T1R3 receptor (Homo sapiens, UniProt Q7RTX0+Q8TE23).
T1 sequence (Q8TE23 20-839): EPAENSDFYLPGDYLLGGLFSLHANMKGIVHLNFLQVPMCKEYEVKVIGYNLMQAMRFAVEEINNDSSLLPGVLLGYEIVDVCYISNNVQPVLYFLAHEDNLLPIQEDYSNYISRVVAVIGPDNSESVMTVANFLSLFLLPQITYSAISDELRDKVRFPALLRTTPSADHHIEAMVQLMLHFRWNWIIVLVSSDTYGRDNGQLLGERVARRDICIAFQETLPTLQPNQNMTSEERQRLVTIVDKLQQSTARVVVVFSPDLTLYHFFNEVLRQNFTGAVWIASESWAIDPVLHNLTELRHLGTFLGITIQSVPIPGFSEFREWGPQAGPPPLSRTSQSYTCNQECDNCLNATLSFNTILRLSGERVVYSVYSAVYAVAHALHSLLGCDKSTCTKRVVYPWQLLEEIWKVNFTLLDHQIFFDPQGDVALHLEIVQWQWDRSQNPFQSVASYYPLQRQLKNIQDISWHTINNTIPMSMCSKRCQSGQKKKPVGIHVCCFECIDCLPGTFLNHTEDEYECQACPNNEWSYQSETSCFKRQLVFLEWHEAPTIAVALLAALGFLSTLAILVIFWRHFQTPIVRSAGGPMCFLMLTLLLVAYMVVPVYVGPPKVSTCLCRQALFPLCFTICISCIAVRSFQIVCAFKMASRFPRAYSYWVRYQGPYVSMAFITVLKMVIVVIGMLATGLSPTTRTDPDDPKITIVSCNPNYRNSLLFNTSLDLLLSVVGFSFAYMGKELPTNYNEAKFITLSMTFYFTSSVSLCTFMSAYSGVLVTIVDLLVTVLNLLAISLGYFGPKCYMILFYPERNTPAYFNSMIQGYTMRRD
T1 sequence (Q7RTX0 21-852): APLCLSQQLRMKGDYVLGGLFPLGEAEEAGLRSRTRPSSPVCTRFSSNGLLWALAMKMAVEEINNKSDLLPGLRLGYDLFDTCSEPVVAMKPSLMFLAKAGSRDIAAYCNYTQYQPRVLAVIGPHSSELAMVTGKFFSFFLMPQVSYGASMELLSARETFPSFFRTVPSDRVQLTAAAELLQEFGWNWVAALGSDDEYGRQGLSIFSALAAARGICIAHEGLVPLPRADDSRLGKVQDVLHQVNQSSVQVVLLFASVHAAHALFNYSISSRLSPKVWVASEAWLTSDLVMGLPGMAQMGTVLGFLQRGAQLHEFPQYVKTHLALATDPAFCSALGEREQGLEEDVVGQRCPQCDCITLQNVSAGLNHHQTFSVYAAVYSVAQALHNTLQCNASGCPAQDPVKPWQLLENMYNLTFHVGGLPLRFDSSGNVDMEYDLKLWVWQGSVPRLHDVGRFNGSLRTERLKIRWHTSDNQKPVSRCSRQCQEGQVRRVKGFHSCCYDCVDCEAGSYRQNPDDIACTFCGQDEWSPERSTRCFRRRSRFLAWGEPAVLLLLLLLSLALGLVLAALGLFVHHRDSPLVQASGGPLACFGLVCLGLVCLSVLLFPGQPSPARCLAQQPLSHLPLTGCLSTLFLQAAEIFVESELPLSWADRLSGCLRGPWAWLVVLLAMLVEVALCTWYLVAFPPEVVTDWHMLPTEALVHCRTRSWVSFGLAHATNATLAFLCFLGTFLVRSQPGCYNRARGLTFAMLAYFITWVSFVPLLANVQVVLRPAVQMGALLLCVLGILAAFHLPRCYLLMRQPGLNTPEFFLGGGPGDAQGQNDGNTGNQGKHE
The experiment can be described thus: activation of the T1R2/T1R3 receptor. It counts as cell-based. The source says:
The present isolated compounds have been tested and shown sweet taste modifying activities.

In experiment [1] the test system is human panelists (sweetness). Nature of the experiment: paired comparison (2-AFC) taste test for sweetness with human panelists. It counts as in vivo. As to the method: Test samples containing experimental compounds were presented in pairs to the human panelist and they were asked to determine which of the sample is sweeter. […] A group of 10-16 or more panelists participated in each test. Subjects refrained from eating or drinking (except water) for at least 1 hour prior to the test. Subjects rinsed with water several times to clean the mouth.
Taste tests were performed with sucrose or HFCS as the sweetener in the presence or absence of compound. A 0.2% stock solution of compound in water with sodium bicarbonate was prepared and then this stock solution was diluted in the final sample to achieve the targeted final concentration of compound. For the sample evaluated at pH 2.8 the pH of the solution is decreased to about pH 2.8 using citric acid. Taste samples were also prepared in a low sodium phosphate buffer (pH 7.1; “LSB”) lacking sucrose or HFCS to evaluate the taste of the compound alone. Low sodium phosphate buffer consists of 0.3 mM KCl, 0.5 mM Na2HPO4, and 0.175 mM KH2PO4. Sample volumes are usually 20 ml.
In one paired comparison test, the panelist was presented with two different samples and asked to identify the sample which is sweeter. The samples within a paired comparison test were presented in a randomized, counterbalanced order. Panelists had up to a 1 minute delay between taste tests to clear the mouth of any tastes.
Binomial probability tables were used to determine the probability of the correct number of responses occurring for each test at alpha=0.05
Paired comparison taste test for sweetness (0.25 mL sample size)

Setting [2] is: 4% sucrose vs 0% sucrose + 100 ppm compound, pH 7.1, total 36.
[3] abbreviates: 4% sucrose vs 0% sucrose + 125 ppm compound, pH 7.1, total 42.
Setting [4] is: 4% sucrose vs 0% sucrose + 150 ppm compound, pH 7.1, total 36.
[5] abbreviates: 4% sucrose vs 0% sucrose + 87 ppm compound, LSB pH 7.1, total 42.

The source of these data is patent publication US12391724B2, “Polypodoside sweet flavor modifier” (Firmenich Incorporated, priority 2019, dated 2025).

What is called EC50 is the concentration that produces a half-maximal response. A higher EC50 goes with a need for much substance.

At T1R2/T1R3 receptor, `COCC(C1CCC(C)C(OC2OC(C)C(O)C(O)C2O)O1)C1CCC2C3=CC(=O)C4CC(OC5OC(CO)C(O)C(O)C5O)CCC4(C)C3CCC21C` (centres unmarked) [Polypodoside E] yielded a concentration giving a half-maximal response (EC50) of 18.4 µM.

At T1R2/T1R3 receptor, `CC1CCC(C(C)C2CCC3C4=CC(=O)C5CC(OC6OC(CO)C(OC7OC(C)C(O)C(O)C7O)C(O)C6O)CCC5(C)C4CCC32C)OC1OC1OC(C)C(O)C(O)C1O` (centres unmarked) [Polypodoside G] displayed an EC50 of 18.7 µM.

With `C=C1C[C@@]23CC[C@H]4[C@@](C)(CCC[C@@]4(C)C(=O)O[C@@H]4O[C@H](CO)[C@@H](O)[C@H](O)[C@H]4O)[C@@H]2CC[C@]1(O[C@@H]1O[C@H](CO)[C@@H](O)[C@H](O[C@@H]2O[C@H](CO)[C@@H](O)[C@H](O)[C@H]2O)[C@H]1O[C@@H]1O[C@H](CO)[C@@H](O)[C@H](O)[C@H]1O)C3` [Reb A, Rebaudioside A], the “concentration equivalent to 4% sucrose” value in experiment [1] (2-AFC, pH 7.1) is reported as 125 ppm Reb A is equivalent to 4% sucrose. The “Sample selected as sweeter by panelists: 0% Sucrose + Cmpd” value in experiment [1] (setting [2]) is listed as 8; in experiment [1] (setting [3]), 22; in experiment [1] (setting [4]), 24. Also, the “Sample selected as sweeter by panelists: 4% Sucrose” value turned out to be 28 in experiment [1] (setting [2]), 20 in experiment [1] (setting [3]) and 12 in experiment [1] (setting [4]).

For Polypodoside D, on T1R2/T1R3 receptor, the EC50 amounted to 4.15 µM. Further, in experiment [1] (setting [5]), the “Sample selected as sweeter by panelists: 0% Sucrose + Cmpd” value was found to be 18 and the “Sample selected as sweeter by panelists: 4% Sucrose” value worked out at 24. The “sweetness of 4% Sucrose compared with the sample (in words)” value in experiment [1] (4% sucrose vs LSB + 87 ppm compound, pH ~7.1) was “not significantly different in sweetness”. Also, in experiment [1] (compared with Rebaudioside A), the “sweet taste and potency in sensory studies (in words)” value is “has a sweet taste and demonstrates higher potency than Rebaudioside A”.
